The values below come from a melting point compilation (Tetko et al.; mined from patent text by program, amines drawn as free bases though some values may be those of a salt).

Regarding `Cc1oc(-c2ccc(C(F)(F)F)cc2)nc1CCOc1ccc(CN(O)C(N)=O)cc1F`, the melting point is 144 to 146 °C.
Then `COc1ccc(N(Cc2ccc(N(C)C)cc2)C(=O)C2CCCc3c(O)cccc32)cc1` (stereo not given), with 195 to 197 °C.
As for `CC(C)Oc1ccc([N+](=O)[O-])cc1C(F)(F)F`, the figure is 34 to 36 °C.
As for `CC1=CC(c2ccccc2C(F)(F)F)C([N+](=O)[O-])=C(C)N1` (stereo not given), the figure is 201 °C.
In turn, `CC=CC=CC(=O)Nc1ccc2ncnc(Nc3cccc(Br)c3)c2c1` displayed a melting point of 258 to 260 °C.
Then `FC(F)(F)c1n[nH]c2ccccc12`, with 104 °C; and `COc1ccc2nc(N3CCNCC3)ccc2c1`, with 95 to 97 °C.
Then `O=Cc1cccc(C=Cc2ccc3ccccc3n2)c1`, with 78.6 to 80.8 °C.
Take `CC1(C)C2C=CC3(C)C(C2)C(=O)CCC13O` (stereo not given): the melting point was in the range of 112 to 115 °C.
Then `CS(=O)(=O)Nc1cccc(Nc2nc(OCC3CCCCC3)c3nc[nH]c3n2)c1`, with 169 to 172 °C; and `CC(C)OC(=O)N1CCC(c2nc3cc(-c4ccc(C(N)=O)cc4Cl)ccc3o2)CC1`, with 178 to 182 °C.
Then `CN(C)c1ccc(C(=O)N[C@H](Cc2ccc(C(F)(F)F)cc2)[C@@H](O)c2ccc(F)cc2)c2ccccc12` (racemic), with 169 to 170 °C; and `C[C@@H](n1cnc2ccc(F)cc2c1=O)[C@](O)(Cn1cncn1)c1ccc(F)cc1F`, with 192 to 193 °C.
Regarding `CCOC(=O)Nc1ccc2nc3ccccc3c(-c3cc(C)ccc3C)c2c1`, the melting point lay within 200 to 202 °C.
Then `COC(=O)c1cc2c(nc1C(=O)OC)SCC2`, with 102 to 104 °C.
Then `CCOC(=O)c1cc(OCC)c(C(=O)OCC)c(OCC)c1`, with 142 to 144 °C; and `O=C(c1ccc([N+](=O)[O-])cc1)c1ccc2c(n1)C(O)CCCN2` (stereo not given), with 182 to 185 °C.
In turn, `O=C(Cc1ccc([N+](=O)[O-])cc1)c1c(O)c2cccnc2n(-c2ccccc2)c1=O` yielded a melting point of 223 to 227 °C.
For the molecule `Cc1cccc2ncc(C(=O)N3CCCC3)c(=O)n12`, the melting point lay within 132 to 134 °C.
As for `COC(=O)NC(C)Cc1cccc([N+](=O)[O-])c1` (stereo not given), the figure is 104 to 105 °C; as for `Fc1ccc(-c2ncn(C3CCNCC3)c2-c2ccnc(Oc3ccc(Oc4ccccc4)cc3)n2)cc1`, 174 to 175 °C; as for `CCCCCCCc1ccc(C(=O)Cc2cccc(C#N)c2)cc1`, 68 °C.
Then `CCOC(=O)c1c2c3c(cccc3n1C)C(OC)CC2` (stereo not given), with 63 to 64 °C.
`CC(C)C(c1cc(Cl)ccc1N1CCCCC1)C(C(N)=O)c1ccc(C(=O)O)cc1` (stereo not given) yielded a melting point of 236 to 240 °C.
`CNc1nnc(-c2ccccc2)c(=O)n1NC` came in with a melting point of 150 to 151 °C.
As for `O=c1[nH]nnn1-c1ccc(OCc2ccc(F)cc2)cc1F`, the figure is 171 to 172 °C; as for `c1ccc2c(c1)nc(NCCN1CCNCC1)c1c3ccccc3[nH]c21`, 210 to 211 °C; as for `CC(=O)NC(C)(C)c1ccc(CN2CCN(c3ccccn3)CC2)cc1`, 129 to 130 °C.
Consider `COCCOc1cc2ncnc(NC3=CC(=O)C(N4CCCCC4)=CC3=O)c2cc1OC`, for which the melting point lay in the range of 197 to 200 °C.
As for `N#Cc1c(F)ccc(F)c1N`, the figure is 90 to 92 °C; as for `CC(=O)c1cc2c(s1)C(=O)c1c(C(C)=O)csc1C2=O`, 207 to 208 °C.
As for `CCOCc1nc2c(N)nc3ccccc3c2n1CCCCC(N)=O`, the figure is 198 to 200 °C.
Then `O=C(O)CCc1cn(Cc2ccc(OCc3csc(-c4cnccn4)n3)cc2)cc1-c1ccccc1`, with 137 to 138 °C; and `CN1C(=O)c2ccccc2CC1C(=O)NC(Cc1c[nH]cn1)C(=O)N1CCCC1C(N)=O` (stereo not given), with 140 to 145 °C.
`CCOc1ccc(C2C(=O)Oc3ccc(C)cc32)cc1` (stereo not given) yielded a melting point of 82 to 86 °C.
Then `CN1CCN(CCCCNc2ncc3cc(-c4c(Cl)cccc4Cl)c(=O)n(C)c3n2)CC1`, with 130 to 132 °C; and `Cc1ccc(-c2c(Cl)ncn2-c2ccc(S(C)(=O)=O)cc2)cc1F`, with 176 °C; and `COc1cc2c(cc1C(F)(F)F)N(C(=O)Nc1ccc3c(ccn3-c3ccncc3)c1)CC2`, with 206 to 211 °C.
As to `CCC1(c2ccc(=O)[nH]n2)CCCCC1`, the melting point was in the range of 138 to 140 °C.
The molecule `CC(=O)Nc1c(C#N)cnn1-c1c(F)c(F)c(C(F)(F)F)c(F)c1F` returned a melting point of 153 to 154 °C.
As for `Cc1cc(COc2c(Cl)cc(CSc3ccc4ccccc4c3)cc2Cl)oc(=O)c1`, the figure is 125 °C.
As for `CN(Cc1ccc(CCn2cnc3cc(-c4ccc(Cl)cc4)sc3c2=O)cc1)C(=O)CCl`, the figure is 162 to 165 °C.
Molecule `O=C1COc2cc(NCC(=O)N3CCC(Oc4ccc(Cl)cc4)CC3)ccc2N1` gave a melting point of 207 to 210 °C.
Then `Cc1oc(C)c(C(=O)Nc2ccc(Cl)c(C(=O)OC(C)C)c2)c1C`, with 83 to 85 °C; and `CNC(=O)C(Cc1ccc(OC)cc1)NC(=O)C(CC(C)C)C(S)CC(=O)OC(C)(C)C` (stereo not given), with 133 to 137 °C; and `Oc1cc(-c2ccc(F)cc2)nc(-c2ccccn2)n1`, with 197 to 198 °C.
As for `COc1ccc(CSC(=S)N2C(CO)Cc3c([nH]c4ccccc34)C2C)cc1` (stereo not given), the figure is 152 to 153 °C.
Then `O=c1[nH]c2ccc(Cl)cc2c2c1[nH]c1ccccc12`, with 325 to 327 °C; and `COc1cc(NC=CS(=O)(=O)F)c(C(C)=O)cc1OC`, with 142 to 146 °C; and `O=C(Nc1ccccc1)C1=C(O)c2ccc3ccccc3c2S(=O)(=O)N1`, with 260 to 262 °C.
The molecule `CCCc1nc(CO)n2[nH]c(=O)nc2c1Cc1ccc(-c2ccccc2-c2nnn[nH]2)cc1` came in with a melting point of 182 to 183 °C.
As for `CCCCC[C@@H](CNC(=O)Nc1c(OC)ccc2c1CCCC2)c1cccc2c1OCO2`, the figure is 137 to 138 °C.
As for `CCCCCCCCCCCCCCCCCCSCCCCCC(N)=O`, the figure is 105 °C.
`COc1cc(C=O)c(OC)cc1C` yielded a melting point of 83 °C.
As for `CCOc1ncc(I)cc1C(N)=O`, the figure is 176 to 179 °C; as for `COc1ccc(-c2ccc(C(=O)Nc3cc4ncc(CN5CCCCCC5)cc4cc3C)c(F)c2)cc1`, 168 °C.
Then `O=[N+]([O-])c1cccc2cc(-c3nccs3)[nH]c12`, with 130 to 131 °C; and `OCc1ccc(Cn2nc(OCc3ccccc3)c3ccccc32)o1`, with 80 to 82 °C; and `Cn1nc(CNC(=O)c2ccccc2)nc1NCCCOc1cccc(CN2CCCCC2)c1`, with 70 °C.
Then `CCOC(=O)C(=CNc1ccnn1Cc1ccco1)C(=O)OCC`, with 84 to 86 °C; and `CC1Cc2c(n(-c3ccccc3)c3ncccc3c2=O)O1` (stereo not given), with 207 to 209 °C; and `O=C(C=C(O)c1cccnc1)C1CCN(CCc2ccccc2)CC1`, with 75 to 77 °C.
Molecule `N=C(NCCCCC1CCN(CC(O)CO)CC1)NC(=O)c1nc(Cl)c(N)nc1N` (stereo not given) gave a melting point of 188 to 191 °C.
As for `COC(=O)c1ccc(NNC(=O)C(C)C)cc1S(N)(=O)=O`, the figure is 198 to 200 °C.
As for `CC(C)c1ccc2oc(C=Cc3ccc(C#N)cc3)cc(=O)c2c1`, the figure is 189 to 191 °C.
Then `Cc1cc(C#N)ccc1N1CCCn2c1nc1c(Cl)ccc(C(OCC(F)(F)F)C3CC3)c12` (stereo not given), with 207 to 209 °C; and `COC1C=C(C)C(=O)CC(C)(C)C1OC(=O)c1ccc2nc[nH]c2c1` (stereo not given), with 155 to 157 °C.
`CCCCCCCCC#CCC#CCC#CCS(=O)CC(=O)NCC` (stereo not given) came in with a melting point of 77 °C.
Then `CC(=O)NCCOc1ccc2c(-c3ccccc3F)noc2c1Cl`, with 154 to 155 °C; and `CC1(CN(c2ccc(Cl)cc2)S(C)(=O)=O)SCCS1`, with 114 to 117 °C.
Then `Cc1oc(-c2ccco2)nc1COc1ccc(COc2ncccc2C=O)cc1`, with 109 to 110 °C; and `CC(=O)N1CCN(CCNc2ncc3ncnc(Nc4ccc(F)c(Cl)c4)c3n2)CC1`, with 196 to 198 °C.
In the case of `Cc1ccc2nc(C(O)[C@H](C)NC(=O)OCc3ccccc3)oc2c1` (stereo not given in full), the melting point was 108 to 109 °C.
`Nc1c(Cl)nc(C2CC2)nc1Cl` yielded a melting point of 54 °C.
Then `CC(C)=CC(C)(S)[C@@H](NC=O)C(=O)O` (stereo not given in full), with 183 to 184 °C.
As for `CS(=O)(=O)c1ccc(-c2cnn(-c3cccc(Cl)c3)c(=O)c2COC(=O)c2ccccc2)cc1`, the figure is 50 to 70 °C; as for `COc1cc(-c2nc(-c3ccc(N(C)C)cc3)c(C)o2)ccc1OC(C)=O`, 97 to 102 °C.
As for `COc1ccc(-c2ccccc2NC(N)=S)cc1`, the figure is 158 to 159 °C; as for `CCOC(=O)c1c(S(C)=O)n(C2CC2)c2cc(F)c(F)cc2c1=O` (stereo not given), 207 °C.
Consider `CCCC1(C(O)CCCN2CCC(N3Cc4ccccc4C3=O)CC2)c2ccccc2-c2ccccc21` (stereo not given), for which the melting point was in the range of 75 to 78 °C.
As for `CCn1ncc(-c2ccc3c(c2)c(C2=CCN(CCN4CCNC4=O)CC2)cn3-c2ccc(F)cc2)n1`, the figure is 143 to 145 °C.
The molecule `O=C1NCCCN1CCCN(Cc1ccccc1)CC1CCc2ccccc2O1` (stereo not given) had a melting point of 94.7 °C.
As for `COc1cc(CCCCCCCCCCCO)ccc1O`, the figure is 72 to 74 °C.
As for `COC(=O)c1ccccc1NCc1ccncc1`, the figure is 86 °C; as for `COC[C@@H]1CC(c2ccc(-c3ccc(N4C[C@H](Cn5ccnn5)OC4=O)cc3F)cn2)=NO1`, 161 °C; as for `CN(C)c1ccc(/C=C/c2c(F)ccc(F)c2F)cc1`, 91 to 92 °C.
As for `COC/C(=N/O)c1ccc(Sc2cc(F)cc(C3(OC)CCOCC3)c2)cc1`, the figure is 155 °C.
The molecule `CN(C)S(=O)(=O)n1c(C#N)nc2ccccc21` had a melting point of 93 °C.
Then `C=CCNc1c(C(=O)OCC)cnc2cn(C)nc12`, with 140 to 143 °C; and `O=C(O)c1cccc(-c2cccc3oc(Cc4ccc(F)c(F)c4)cc23)c1`, with 194 to 195 °C.

What is called melting point is the temperature, or range, at which the solid turns liquid.
